Common to all, as to assay type: cell-based, mouse
Assay [1] concerns C2C12 myotube cells. The assay is described as follows: Myotube diameter (crystal violet, Image J) of CCM-treated C2C12 myotubes. The note with it: C2C12 myotubes + CCM 1:1, 72 hours, predetermined concentration; compared to CCM. Here is the method: A C2C12 cell line was dispensed into a 6-well plate at 4.0×10^5 cells/well, and then cultured in DMEM medium containing 10% fetal bovine serum (FBS) under 37° C. and 5% CO2 conditions for one day. When the cell density reached about 80%, the medium was replaced with a differentiation medium and the cells were cultured for additional 3 days. […] The myotube diameter was measured using Image J from the above image, and the change in myotube cell diameter is summarized in FIG. 17B. A C2C12 cell line was dispensed into a 6-well plate at 4.0×10^5 cells/well, and then cultured in DMEM medium containing 10% fetal bovine serum (FBS) under 37° C. and 5% CO2 conditions for one day. When the cell density reached about 80%, the medium was replaced with a differentiation medium and the cells were cultured for additional 3 days. […] The myotube diameter was measured using Image J from the above images, and the changes in myotube cell diameter are summarized in FIG. 24B.

Assay [2] deals with C2C12 myotube cells. The assay is described as follows: Myotube diameter of C2C12 myotubes treated with inducers (no CCM). The conditions noted are these: 72 hours. The method, then:
(§1) A C2C12 cell line was dispensed into a 6-well plate at 4.0×10^5 cells/well, and then cultured in DMEM medium containing 10% fetal bovine serum (FBS) under 37° C. and 5% CO2 conditions for one day. When the cell density reached about 80%, the medium was replaced with a differentiation medium and the cells were cultured for additional 3 days to set up a normal control group, and simultaneously a test group was set up by treatment with WY-14643, which is a PDK-4 activator, at a concentration of 50 μM. […] Scale bars inserted in FIGS. 13A and 13B represent a horizontal length of 50 μm. Referring to FIG. 13, it was confirmed that the diameter of myotube cells decreased when treated with the PDK-4 activator (i.e., WY-14643), thereby inducing the cells to a state similar to that of cancer cachexia.
A C2C12 cell line was dispensed into a 6-well plate at 4.0×10^5 cells/well, and then cultured in DMEM medium containing 10% fetal bovine serum (FBS) under 37° C. and 5% CO2 conditions for one day. […]
A C2C12 cell line was dispensed into a 6-well plate at 4.0×10^5 cells/well, and then cultured in DMEM medium containing 10% fetal bovine serum (FBS) under 37° C. and 5% CO2 conditions for one day. […] The myotube diameter was measured using Image J to confirm the changes in diameter of myotube cells, and the results are shown in FIG. 37B.

For assay [3], the system named is MuRF1. Description: MuRF1 expression (Western blot) in CCM-treated C2C12 myotubes. The note with it: 72 hours, compared to other experimental groups (components alone and in combination). Here is the method:
(§2) A C2C12 cell line was dispensed into a 6-well plate at 4.0×10^5 cells/well, and then cultured in DMEM medium containing 10% fetal bovine serum (FBS) under 37° C. and 5% CO2 conditions for one day. When the cell density reached about 80%, the medium was replaced with a differentiation medium and the cells were cultured for additional 3 days. After confirming completion of differentiation of the cells, the cells were treated with a mixture, in which the differentiation medium and cancer-cell conditioned medium (CCM) were mixed at a 1:1 ratio, to form a control group, and simultaneously, a test group was set up by treating with the calcium salts of Preparation Examples 1 to 3 according to three predetermined concentrations.
(§3) A C2C12 cell line was dispensed into a 6-well plate at 4.0×10^5 cells/well, and then cultured in DMEM medium containing 10% fetal bovine serum (FBS) under 37° C. and 5% CO2 conditions for one day. When the cell density reached about 80%, the medium was replaced with a differentiation medium and the cells were cultured for additional 3 days.
(In general: A western blot detects proteins with antibodies after separation by electrophoresis.)

Assay [4] relates to Atrogin1. The assay is described as follows: Atrogin1 expression (Western blot) in CCM-treated C2C12 myotubes. The conditions noted are these: 72 hours, compared to other experimental groups (components alone and in combination). Here is the method: as §2, §3
In the next assay the test system is Calpain 3. Description: Calpain 3 expression (Western blot) in CCM-treated C2C12 myotubes. Here is the method:
(§4) C2C12 cell line was dispensed into a 6-well plate at 4.0×10^5 cells/well and cultured in DMEM medium containing 10% fetal bovine serum (FBS) under 37° C. and 5% CO2 conditions for one day. When the cell density reached about 80%, the medium was replaced with a differentiation medium and the cells were cultured for additional 3 days. […] After culturing for 72 hours, the cells were collected and analyzed for PDK-4, which is a target marker, by Western blot and the results are summarized in FIG. 6.
The experiment was performed in the same manner as in Experimental Example 3-1, except that Calpain 3 was analyzed as a target marker for Western blot, and the results are summarized in FIG. 7.
as §3

In assay [5] the test system is PDK-4. Description: PDK-4 expression (Western blot) in CCM-treated C2C12 myotubes. The note with it: for expression of PDK-4: C2C12 myotubes + CCM, 72 hours, comparison experiment with components alone and in combination; for expression level of PDK-4: C2C12 myotubes, differentiation medium:CCM 1:1, 72 hours, three predetermined concentrations, vs CCM control. Here is the method: as §4, §3
Subsequently, MuRF1, Atrogin1, MyHC, Myogenin (muscle markers) and Calpain 3, PDK-4, and GDF-15 (other target markers for muscle related disease) were analyzed using Western blot, and the relative expression levels for the markers are shown in FIGS. 26 and 28.

A further assay has as its system GDF-15. Description: GDF-15 expression (Western blot) in CCM-treated C2C12 myotubes. The note with it: for expression of GDF-15: C2C12 myotubes + CCM, 72 hours, comparison experiment with components alone and in combination; for expression level of GDF-15: C2C12 myotubes, differentiation medium:CCM 1:1, 72 hours, three predetermined concentrations, vs CCM control. Here is the method:
as §4
The analysis was performed in the same manner as in Experimental Example 4-1 except for analyzing GDF-15 as a target marker for a Western blot, and the results are summarized in FIGS. 8 and 9.
The analysis was performed in the same manner as in Experimental Example 3-1 except for analyzing PDK-4 as a target marker for Western blot, and the results are summarized in FIGS. 10 and 11.
as §3

For assay [6], the system named is Myogenin. Description: Myogenin expression (Western blot) in CCM-treated C2C12 myotubes. The note with it: 72 hours, compared to other experimental groups (components alone and in combination). Here is the method: as §2, §3
The subject of assay [7] is MyHC. Description: MyHC expression (Western blot) in CCM-treated C2C12 myotubes. The conditions noted are these: 72 hours, compared to other experimental groups (components alone and in combination). The method, then: as §2, §3
Assay [8] concerns PDK-4. Description: PDK-4 expression (Western blot) in C2C12 myotubes treated with inducers (no CCM). The note with it: 50 μM, 72 hours, vs UCM. Here is the method:
as §1
Subsequently, the expression of PDK-4, MuRF1, Atrogin1, MyHC, and Myogenin in the normal control group (UCM) and the activator-treated group (WY-14643) were analyzed by Western blot, and the results are shown in FIGS. 14A and 14B.
A C2C12 cell line was dispensed into a 6-well plate at 4.0×10^5 cells/well, and then cultured in DMEM medium containing 10% fetal bovine serum (FBS) under 37° C. and 5% CO2 conditions for one day. When the cell density reached about 80%, the medium was replaced with a differentiation medium and the cells were cultured for additional 3 days. […]

Assay [9] relates to Atrogin1. Description: Atrogin1 expression (Western blot) in C2C12 myotubes treated with inducers (no CCM). The conditions noted are these: 50 μM, 72 hours, vs UCM. The method, then:
as §1
(§5) Subsequently, the expression of PDK-4, MuRF1, Atrogin1, MyHC, and Myogenin in the normal control group (UCM) and the activator-treated group (WY-14643) were analyzed by Western blot, and the results are shown in FIGS. 14A and 14B. […]
(§6) Subsequently, the expression of Calpain 3, MuRF1, Atrogin1, MyHC, and Myogenin in the normal control group (UCM), vehicle control group (scrambled siRNA), and Calpain 3 siRNA treated group was analyzed by Western blot, and the results are shown in FIGS. 16A and 16B. […]

For assay [10], the system named is MyHC. Description: MyHC expression (Western blot) in C2C12 myotubes treated with inducers (no CCM). The conditions noted are these: 50 μM, 72 hours, vs UCM. Here is the method: as §1, §5, §6
Assay [11] has as its system Myogenin. The assay is described as follows: Myogenin expression (Western blot) in C2C12 myotubes treated with inducers (no CCM). The conditions noted are these: 50 μM, 72 hours, vs UCM. Here is the method:
as §1, §5, §6

Assay [12] has as its system MuRF1. The assay is described as follows: MuRF1 expression (Western blot) in C2C12 myotubes treated with inducers (no CCM). The conditions noted are these: 50 μM, 72 hours, vs UCM. Here is the method:
as §1, §5, §6

Setting [13] is: C2C12 myotubes + CCM, 72 hours, compared to other experimental groups (components alone and in combination).
[14] abbreviates: C2C12 myotubes, differentiation medium:CCM 1:1, 72 hours, three predetermined concentrations, vs CCM control.

Six molecules from patent publication US20240408057A1, “Composition for preventing or treating cachexia and muscle loss” (METAFINES.CO.LTD., priority 2023, published 2024) can be followed below.

Where only a bound is given, the exact number is not on record here.

For the molecule `O=C(O)C(Cl)Cl` [dichloroacetic acid, reference compound], the “diameter of myotube cells” value in the assay with C2C12 myotube cells [1] is on record as “increased”.

Regarding `C[C@@H]1C[C@H]2[C@@H]3CCC4=CC(=O)C=C[C@]4(C)[C@@]3(F)[C@@H](O)C[C@]2(C)[C@@]1(O)C(=O)CO` [dexamethasone], the “treatment concentration from which the myotube diameter started to decrease” value in the assay on C2C12 myotube cells [2] was at least 1 µM.

`O=C1O[C@H]([C@@H](O)CO)C(O)=C1O` [ascorbic acid, reference compound]: the “diameter of myotube cells” value with C2C12 myotube cells [1] is “increased”.

As to `CC(C)CC(N)C(=O)[O-].O=C1OC(C(O)CO)C([O-])=C1O.[Ca+2]` (centres unmarked) [Preparation Example 2, calcium salts of ascorbic acid and leucine], the “expression of MuRF1” value in the assay on MuRF1 [3] is listed as “excellent effect of inhibiting the increase of expression”. Besides, the “expression of Atrogin1” value in the assay on Atrogin1 [4] is “excellent effect of inhibiting the increase of expression”. In the assay on Calpain 3 (setting [13]), the “expression level of Calpain 3” value is reported as “higher expression level”. Also, the “expression level of Calpain 3” value in the assay with Calpain 3 (setting [14]) was “decrease in expression was inhibited”. Further, in the assay with PDK-4 [5], the “expression of PDK-4” value is “inhibited” and the “expression level of PDK-4” value is “expression was inhibited”. For the same molecule, in the assay with GDF-15, the “expression of GDF-15” value was “inhibited” and the “expression level of GDF-15” value was “expression was inhibited”. Also, the “expression of Myogenin” value in the assay with Myogenin [6] is “excellent effect of inhibiting the decrease of expression”. In addition, in the assay with MyHC [7], the “expression of MyHC” value is “excellent effect of inhibiting the decrease of expression”.

In the case of `CC(C)CC(N)C(=O)[O-].O=C([O-])C(Cl)Cl.[Ca+2]` (centres unmarked) [Preparation Example 3, calcium salts of dichloroacetic acid and leucine], the “expression of MuRF1” value in the assay on MuRF1 [3] is reported as “excellent effect of inhibiting the increase of expression”. In addition, the “expression of Atrogin1” value with Atrogin1 [4] was “excellent effect of inhibiting the increase of expression”. Also, the “expression level of Calpain 3” value in the assay with Calpain 3 (setting [13]) is recorded as “higher expression level”. Also, the “expression level of Calpain 3” value with Calpain 3 (setting [14]) is reported as “decrease in expression was inhibited”. Moreover, in the assay on PDK-4 [5], the “expression of PDK-4” value is on record as “inhibited” and the “expression level of PDK-4” value is reported as “expression was inhibited”. In addition, in the assay with GDF-15, the “expression of GDF-15” value is on record as “inhibited” and the “expression level of GDF-15” value is given as “expression was inhibited”. In the assay on Myogenin [6], the “expression of Myogenin” value is “excellent effect of inhibiting the decrease of expression”. The “expression of MyHC” value in the assay with MyHC [7] is reported as “excellent effect of inhibiting the decrease of expression”.

Turning to `Cc1cccc(Nc2cc(Cl)nc(SCC(=O)O)n2)c1C` [WY-14643], the “expression of PDK-4” value with PDK-4 [8] was “up-regulated”. Moreover, the “expression of Atrogin1” value in the assay with Atrogin1 [9] is reported as “up-regulated”. In addition, the “diameter of myotube cells” value in the assay with C2C12 myotube cells [2] (50 μM, vs normal control (UCM)) is reported as “decreased”. Also, the “expression of MyHC” value with MyHC [10] is “down-regulated”. Besides, in the assay with Myogenin [11], the “expression of Myogenin” value is listed as “down-regulated”. The “expression of MuRF1” value in the assay with MuRF1 [12] is given as “up-regulated”.
